Test [1] addresses T1, FAK (Homo sapiens, UniProt Q05397). As to the kind of experiment: biochemical.
Test [2] addresses T1, FAK. As to the kind of experiment: Cell-based capture ELISA for inhibition of FAK autophosphorylation [pY397] in MiaPaCa2 cells. The following applies: MIA-PaCa2 cells, + 50% mouse plasma (Table 3); read-out: Mean FAK Cell Mechanistic IC50 + 50% mP MIA-PaCa2. How it is done:
Cell-Based Assays for Inhibition of FAK Autophosphorylation: MiaPaCa2 and U87MG
ELISA kit from Invitrogen (KHO0441).
Reagents Provided in Biosource FAK [pY397]
The cells were then suspended in cell assay medium.
(In general: ELISA stands for enzyme-linked immunosorbent assay.)

The text below walks through data of patent US9096624B2 (OSI Pharmaceuticals, LLC, priority 2009, dated 2015).

The structures appear in SMILES notation.

As usually defined, the IC50 is the point on the concentration scale where inhibition reaches its midpoint.

T1 sequence (Q05397 whole entry): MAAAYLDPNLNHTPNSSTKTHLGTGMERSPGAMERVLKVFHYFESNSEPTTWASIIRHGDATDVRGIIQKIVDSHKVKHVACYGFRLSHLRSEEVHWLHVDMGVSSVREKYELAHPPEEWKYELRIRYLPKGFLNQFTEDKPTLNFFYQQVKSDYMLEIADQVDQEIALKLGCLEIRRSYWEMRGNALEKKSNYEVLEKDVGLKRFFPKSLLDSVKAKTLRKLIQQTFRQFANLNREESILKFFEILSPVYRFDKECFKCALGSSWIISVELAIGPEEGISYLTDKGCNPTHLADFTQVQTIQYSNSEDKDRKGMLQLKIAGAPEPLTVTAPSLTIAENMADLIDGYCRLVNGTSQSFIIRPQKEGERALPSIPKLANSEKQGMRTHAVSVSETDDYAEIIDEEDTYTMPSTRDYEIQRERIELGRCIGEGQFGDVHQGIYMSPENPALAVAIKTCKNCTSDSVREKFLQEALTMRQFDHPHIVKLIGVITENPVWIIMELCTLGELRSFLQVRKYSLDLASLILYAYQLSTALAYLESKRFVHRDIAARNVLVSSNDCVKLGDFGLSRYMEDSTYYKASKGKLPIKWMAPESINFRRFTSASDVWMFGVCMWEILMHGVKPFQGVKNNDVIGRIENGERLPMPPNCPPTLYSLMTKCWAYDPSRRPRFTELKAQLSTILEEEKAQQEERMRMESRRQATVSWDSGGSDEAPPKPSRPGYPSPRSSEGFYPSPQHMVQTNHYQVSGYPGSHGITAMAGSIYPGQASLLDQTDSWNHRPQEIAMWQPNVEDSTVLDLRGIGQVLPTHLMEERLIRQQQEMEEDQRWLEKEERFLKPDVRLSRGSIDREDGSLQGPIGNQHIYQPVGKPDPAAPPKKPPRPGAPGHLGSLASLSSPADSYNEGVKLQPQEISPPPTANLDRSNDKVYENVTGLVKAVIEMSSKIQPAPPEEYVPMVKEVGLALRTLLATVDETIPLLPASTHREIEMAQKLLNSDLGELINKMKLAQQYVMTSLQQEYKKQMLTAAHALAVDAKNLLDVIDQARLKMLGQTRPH

Turning to `CCOP(=O)(O)Cc1ccc(Nc2ncc(C(F)(F)F)c(Nc3ccc(-c4cnn(CCCO)c4)c4c3C(=O)N(C)C4)n2)cc1` [Example 182, Sodium ethyl (4-{[4-({7-[1-(3-hydroxypropyl)-1H-pyrazol-4-yl]-2-methyl-3-oxo-2,3-dihydro-1H-isoindol-4-yl}amino)-5-(trifluoromethyl)pyrimidin-2-yl]amino}benzyl)phosphonate], the IC50 is less than 1000 nM at FAK [1] and 1000 to 10000 nM on FAK [2].
Turning to `CCOP(=O)(Cc1ccc(Nc2ncc(C(F)(F)F)c(Nc3ccc([C@H]4CC[C@](C)(O)CC4)c4c3C(=O)N(C)C4)n2)cc1)OCC` [Example 183, Diethyl (4-{[4-{[7-(trans-4-hydroxy-4-methylcyclohexyl)-2-methyl-3-oxo-2,3-dihydro-1H-isoindol-4-yl]amino}-5-(trifluoromethyl)pyrimidin-2-yl]amino}benzyl)phosphonate], the IC50 against FAK [1] and on FAK [2] was less than 1000 nM throughout.
For the compound `CCOP(=O)(Cc1ccc(Nc2ncc(C(F)(F)F)c(Nc3ccc([C@H]4CC[C@@](C)(O)CC4)c4c3C(=O)N(C)C4)n2)cc1)OCC` [Example 184, Diethyl (4-{[4-{[7-(cis-4-hydroxy-4-methylcyclohexyl)-2-methyl-3-oxo-2,3-dihydro-1H-isoindol-4-yl]amino}-5-(trifluoromethyl)pyrimidin-2-yl]amino}benzyl) phosphonate], the IC50 against FAK [1] and at FAK [2] was less than 1000 nM throughout.
As for `CNC(=O)c1ccccc1Nc1nc(Nc2ccc(CP(=O)(OCCOC)OCCOC)cc2)ncc1C(F)(F)F` [Example 185, Bis(2-methoxyethyl) (4-{[4-{[2-(methylcarbamoyl)phenyl]amino}-5-(trifluoromethyl)pyrimidin-2-yl]amino}benzyl)phosphonate], the IC50 on FAK [1] and on FAK [2] was less than 1000 nM each time.
With `CCOP(=O)(OCC)C(F)(F)c1ccc(Nc2ncc(C(F)(F)F)c(Nc3ccccc3C(=O)NC)n2)cc1` [Example 188, Diethyl [difluoro(4-{[4-{[2-(methylcarbamoyl)phenyl]amino}-5-(trifluoromethyl)-pyrimidin-2-yl]amino}phenyl)methyl]phosphonate], the IC50 against FAK [1] and on FAK [2] was less than 1000 nM each time.
As to `COCCOP(=O)(Cc1ccc(Nc2ncc(C(F)(F)F)c(Nc3ccc([C@H]4CC[C@H](O)CC4)c4c3C(=O)N(C)C4)n2)cc1)OCCOC` [Example 189, Bis(2-methoxyethyl) (4-{[4-{[7-(trans-4-hydroxycyclohexyl)-2-methyl-3-oxo-2,3-dihydro-1H-isoindol-4-yl]amino}-5-(trifluoromethyl)pyrimidin-2-yl]amino}benzyl)phosphonate], the IC50 on FAK [1] and on FAK [2] was less than 1000 nM each time.
Consider `CCOP(=O)(Cc1ccc(Nc2ncc(C(F)(F)F)c(Nc3ccccc3C(N)=O)n2)c(OC)c1)OCC` [Example 190, Diethyl [4-({4-[(2-carbamoylphenyl)amino]-5-(trifluoromethyl)pyrimidin-2-yl}amino)-3-methoxybenzyl]phosphonate], for which the IC50 at FAK [1] and on FAK [2] was less than 1000 nM each time.
For `CCOP(C)(=O)Cc1ccc(Nc2ncc(C(F)(F)F)c(Nc3ccc([C@H]4CC[C@H](O)CC4)c4c3C(=O)N(C)C4)n2)c(OC)c1` (stereo partly drawn) [Example 191, Ethyl (4-{[4-{[7-(trans-4-hydroxycyclohexyl)-2-methyl-3-oxo-2,3-dihydro-1H-isoindol-4-yl]amino}-5-(trifluoromethyl)pyrimidin-2-yl]amino}-3-methoxybenzyl) methylphosphinate], the concentration for half-maximal inhibition (IC50) against FAK [1] and at FAK [2] was less than 1000 nM each time.
On to `CCOP(=O)(Cc1ccc(Nc2ncc(C(F)(F)F)c(Nc3ccc([C@H]4CC[C@@H](O)CC4)cc3C(=O)N(C)C)n2)c(OC)c1)OCC` [Example 194, Diethyl (4-{[4-{[2-(dimethylcarbamoyl)-4-(cis-4-hydroxycyclohexyl)phenyl]amino}-5-(trifluoromethyl)pyrimidin-2-yl]amino}-3-methoxybenzyl)phosphonate], for which the IC50 is less than 1000 nM against FAK [1] and 1000 to 10000 nM at FAK [2].
As to `CCOP(=O)(Cc1ccc(Nc2ncc(C(F)(F)F)c(Nc3ccc([C@H]4CC[C@](C)(O)CC4)c4c3C(=O)N(C)C4)n2)c(OC)c1)OCC` [Example 196, Diethyl (4-{[4-{[7-(trans-4-hydroxy-4-methylcyclohexyl)-2-methyl-3-oxo-2,3-dihydro-1H-isoindol-4-yl]amino}-5-(trifluoromethyl)pyrimidin-2-yl]amino}-3-methoxybenzyl)phosphonate], the IC50 at FAK [1] and on FAK [2] was less than 1000 nM each time.
On to `CCOP(=O)(Cc1ccc(Nc2ncc(C(F)(F)F)c(Nc3ccc([C@H]4CC[C@@](C)(O)CC4)c4c3C(=O)N(C)C4)n2)c(OC)c1)OCC` [Example 197, Diethyl (4-{[4-{[7-(cis-4-hydroxy-4-methylcyclohexyl)-2-methyl-3-oxo-2,3-dihydro-1H-isoindol-4-yl]amino}-5-(trifluoromethyl)pyrimidin-2-yl]amino}-3-methoxybenzyl)phosphonate], for which the IC50 against FAK [1] and at FAK [2] was less than 1000 nM each time.
On to `CCCP(=O)(CCC)c1ccc(Nc2ncc(C(F)(F)F)c(Nc3ccc([C@H]4CC[C@H](O)CC4)c4c3C(=O)N(C)C4)n2)cc1` [Example 198, 7-{[2-{[4-(Dipropylphosphoryl)phenyl]amino}-5-(trifluoromethyl)pyrimidin-4-yl]amino}-4-(trans-4-hydroxycyclohexyl)-2-methyl-2,3-dihydro-1H-isoindol-1-one], for which the IC50 on FAK [1] and at FAK [2] was less than 1000 nM in each case.
For `CCOP(=O)(Cc1ccc(Nc2ncc(C(F)(F)F)c(Nc3ccc(N4CCN(C(C)=O)CC4)c4c3C(=O)N(C)C4)n2)cc1)OCC` [Example 199, Diethyl (4-{[4-{[7-(4-acetylpiperazin-1-yl)-2-methyl-3-oxo-2,3-dihydro-1H-isoindol-4-yl]amino}-5-(trifluoromethyl)pyrimidin-2-yl]amino}benzyl)phosphonate], the IC50 on FAK [1] and at FAK [2] was less than 1000 nM in each case.
Regarding `CCOP(=O)(Cc1ccc(Nc2ncc(C(F)(F)F)c(Nc3ccc(N4CCN(C)CC4)c4c3C(=O)N(C)C4)n2)cc1)OCC` [Example 201, Diethyl (4-{[4-{[2-methyl-7-(4-methylpiperazin-1-yl)-3-oxo-2,3-dihydro-1H-isoindol-4-yl]amino}-5-(trifluoromethyl)pyrimidin-2-yl]amino}benzyl)phosphonate], the IC50 at FAK [1] and on FAK [2] was less than 1000 nM throughout.
In the case of `CCOP(=O)(Cc1ccc(Nc2ncc(C(F)(F)F)c(Nc3cccc4[nH]cc(C)c(=O)c34)n2)cc1)OCC` [Example 203, Diethyl [4-({4-[(3-methyl-4-oxo-1,4-dihydroquinolin-5-yl)amino]-5-(trifluoromethyl)pyrimidin-2-yl}amino)benzyl]phosphonate], the IC50 at FAK [1] and on FAK [2] was less than 1000 nM in each case.
As to `CCOc1ccc(Nc2nc(Nc3ccc(CP(=O)(OCC)OCC)cc3)ncc2C(F)(F)F)c2c1CN(C)C2=O` [Example 206, Diethyl [4-({4-[(7-ethoxy-2-methyl-3-oxo-2,3-dihydro-1H-isoindol-4-yl)amino]-5-(trifluoromethyl)pyrimidin-2-yl}amino)benzyl]phosphonate], the IC50 against FAK [1] and at FAK [2] was less than 1000 nM throughout.
`CCOP(=O)(Cc1ccc(Nc2ncc(C(F)(F)F)c(Nc3ccc(OC(C)C)c4c3C(=O)N(C)C4)n2)cc1)OCC` [Example 207, Diethyl (4-{[4-{[2-methyl-3-oxo-7-(propan-2-yloxy)-2,3-dihydro-1H-isoindol-4-yl]amino}-5-(trifluoromethyl)pyrimidin-2-yl]amino}benzyl)phosphonate]: the IC50 on FAK [1] and on FAK [2] was less than 1000 nM each time.
Consider `CCOP(=O)(Cc1ccc(Nc2ncc(C(F)(F)F)c(Nc3ccc(N4CCOCC4)c4c3C(=O)N(C)C4)n2)cc1)OCC` [Example 208, Diethyl (4-{[4-{[2-methyl-7-(morpholin-4-yl)-3-oxo-2,3-dihydro-1H-isoindol-4-yl]amino}-5-(trifluoromethyl)pyrimidin-2-yl]amino}benzyl)phosphonate], for which the IC50 at FAK [1] and at FAK [2] was less than 1000 nM in each case.
As for `CCOP(=O)(Cc1ccc(Nc2ncc(C(F)(F)F)c(Nc3ccc(OC)c4c3C(=O)N(C)C4)n2)c(OC)c1)OCC` [Example 209, Diethyl [3-methoxy-4-({4-[(7-methoxy-2-methyl-3-oxo-2,3-dihydro-1H-isoindol-4-yl)amino]-5-(trifluoromethyl)pyrimidin-2-yl}amino)benzyl]phosphonate], the IC50 at FAK [1] and at FAK [2] was less than 1000 nM each time.
Regarding `COCCOP(=O)(Cc1ccc(Nc2ncc(C(F)(F)F)c(Nc3ccc([C@H]4CC[C@H](O)CC4)c4c3C(=O)N(C)C4)n2)c(OC)c1)OCCOC` [Example 217, Bis(2-methoxyethyl) (4-{[4-{[7-(trans-4-hydroxycyclohexyl)-2-methyl-3-oxo-2,3-dihydro-1H-isoindol-4-yl]amino}-5-(trifluoromethyl)pyrimidin-2-yl]amino}-3-methoxybenzyl)phosphonate], the IC50 against FAK [1] and at FAK [2] was less than 1000 nM in each case.
Regarding `COCCOP(=O)(Cc1ccc(Nc2ncc(C(F)(F)F)c(Nc3cccc4c3C(=O)N(C)C4)n2)c(OC)c1)OCCOC` [Example 219, Bis(2-methoxyethyl) [3-methoxy-4-({4-[(2-methyl-3-oxo-2,3-dihydro-1H-isoindol-4-yl)amino]-5-(trifluoromethyl)pyrimidin-2-yl}amino)benzyl]phosphonate], the IC50 against FAK [1] and on FAK [2] was less than 1000 nM throughout.
As to `CNC(=O)c1ccccc1Nc1nc(Nc2ccc(CP(=O)(OCCOC)OCCOC)cc2OC)ncc1C(F)(F)F` [Example 221, Bis(2-methoxyethyl) (3-methoxy-4-{[4-{[2-(methylcarbamoyl)phenyl]amino}-5-(trifluoromethyl)pyrimidin-2-yl]amino}benzyl)phosphonate], the concentration for half-maximal inhibition (IC50) on FAK [1] and on FAK [2] was less than 1000 nM each time.
